Results on five compounds are retold here after ChEMBL document CHEMBL3046868, “Synthesis and biological activities of 4-trifluoromethylindole-3-acetic acid: a new fluorinated indole auxin” (2008).

Each structure is given as a SMILES string. Activity calls are given as the source filed them. The rule behind the calls is not given here.

For assay [1], the system named is Vigna mungo. As to the kind of experiment: Root formation-promoting activity in Vigna mungo (black gram) cuttings at 1 x 10^-4 M relative to IBA (reference value: 35 +/- 8%). In kind it is functional.
The test system of assay [2] is Vigna mungo. As to the kind of experiment: Induction of callus formation on Vigna mungo (black gram) seedlings at 3 x 10^-5 M after 3 days. In kind it is functional, organism-based.
Assay [3] deals with Vigna mungo. As to the kind of experiment: Enhancement of hypocotyl swelling in intact Vigna mungo (black gram) seedlings at 1 x 10^-6 M. The class given is functional, organism-based.
The subject of assay [4] is Brassica rapa subsp. pekinensis. As to the kind of experiment: Relative growth inhibitory activity of Brassica rapa subsp. pekinensis (Chinese cabbage) hypocotyl at 1 x 10^-7 to 1 x 10^-4 M.
Assay [5] concerns Vigna mungo. As to the kind of experiment: Enhancement of lateral root formation in intact Vigna mungo (black gram) seedlings at 1 x 10^-6 M. The class given is functional, organism-based.
Assay [6] concerns Vigna mungo. As to the kind of experiment: Enhancement of hypocotyl swelling in intact Vigna mungo (black gram) seedlings at 3 x 10^-6 M. In kind it is functional, organism-based.
In assay [7] the test system is Vigna mungo. As to the kind of experiment: Enhancement of lateral root formation in intact Vigna mungo (black gram) seedlings at 3 x 10^-6 M. In kind it is functional, organism-based.
Assay [8] concerns Vigna mungo. As to the kind of experiment: Enhancement of lateral root formation in intact Vigna mungo (black gram) seedlings at 1 x 10^-4 M. In kind it is functional, organism-based.
Assay [9] deals with Vigna mungo. As to the kind of experiment: Enhancement of hypocotyl swelling in intact Vigna mungo (black gram) seedlings at 1 x 10^-4 M. The class given is functional, organism-based.
Assay [10] deals with Vigna mungo. As to the kind of experiment: Ratio of compound activity to IBA activity for root formation-promoting activity in Vigna mungo (black gram) cuttings at 1 x 10^-4 M. The class given is functional.
Assay [11] concerns Vigna mungo. As to the kind of experiment: Induction of callus formation on Vigna mungo (black gram) seedlings at > 3 x 10^-3 M after 3 days. The class given is functional, organism-based.
In assay [12] the test system is Brassica rapa subsp. pekinensis. As to the kind of experiment: Ratio of IAA activity to compound activity for growth inhibition of Brassica rapa subsp. pekinensis (Chinese cabbage) hypocotyl at 1 x 10^-7 to 1 x 10^-4 M. The class given is functional.
The test system of assay [13] is Vigna mungo. As to the kind of experiment: Enhancement of hypocotyl swelling in intact Vigna mungo (black gram) seedlings at 3 x 10^-4 M. In kind it is functional, organism-based.
The test system of assay [14] is Vigna mungo. As to the kind of experiment: Enhancement of lateral root formation in intact Vigna mungo (black gram) seedlings at 3 x 10^-4 M. The class given is functional, organism-based.
In assay [15] the test system is Brassica rapa subsp. pekinensis. As to the kind of experiment: Growth inhibition of Brassica rapa subsp. pekinensis (Chinese cabbage) hypocotyl at 1 x 10^-7 to 1 x 10^-4 M. The class given is functional.

In the assay with Vigna mungo [1], `O=C(O)Cc1c[nH]c2cccc(Cl)c12` yielded an Activity of 384%. Also, the outcome with Vigna mungo [2], with Vigna mungo [3] and in the assay with Vigna mungo [5] was Active. For the same compound, in assay [4], the “relative activity (%)” value came to 6%.
`Cc1cccc2[nH]cc(CC(=O)O)c12` returned an Activity with Vigna mungo [1] of 70%. Further, the result in the assay with Vigna mungo [2], in the assay on Vigna mungo [6] and in the assay with Vigna mungo [7] was Active. In assay [4], the “relative activity (%)” value is on record as 40%.
In the case of `O=C(O)CCCc1c[nH]c2ccccc12`, the Activity with Vigna mungo [1] is listed as 100%.
Compound `O=C(O)Cc1c[nH]c2ccccc12` [INDOLE-3-ACETIC ACID] yielded an Activity in the assay on Vigna mungo [1] of 36%. For the same compound, the outcome in the assay on Vigna mungo [8] and in the assay on Vigna mungo [9] was Active.
For the compound `O=C(O)Cc1c[nH]c2cccc(C(F)(F)F)c12`, in the assay on Vigna mungo [1], the Activity amounted to 156%. The Ratio with Vigna mungo [10] was found to be 1.5; in assay [12], 6. The result in the assay with Vigna mungo [11], in the assay on Vigna mungo [13] and in the assay with Vigna mungo [14] was Active. Moreover, the “growth inhibition (GI)” value in [15] was “Active”.
